From the supplement of paper PMC11061612

How the values were obtained:
SG3199 = compound: CC1=CN2[C@@H](C1)C=NC3=CC(=C(C=C3C2=O)OC)OCCCCCOC4=C(C=C5C(=C4)N=C[C@@H]6CC(=CN6C5=O)C)OC [SG3199]; settings: max 0.001 µM
Outline: (§1)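 After 24 hours at 37°C and 5% CO2 in 1536-well plates holding 7.5 μl of DMEM/F12 or RPMI with 10% FBS, cancer cell lines were dosed for 72 hours, with final DMSO typically 0.2%. Viability came from CellTiter-Glo 2.0 luminescence, scaled between the means of blank wells and DMSO wells. A non-linear mixed effects model fitted a two-parameter logistic curve to each dose response to give the single-agent IC50.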

Dasatinib = compound: CC1=C(C(=CC=C1)Cl)NC(=O)C2=CN=C(S2)NC3=CC(=NC(=N3)C)N4CCN(CC4)CCO [Dasatinib]; settings: max 2 µM
Outline: as §1

Trametinib = compound: CC(=O)Nc1cccc(-n2c(=O)n(C3CC3)c(=O)c3c(Nc4ccc(I)cc4F)n(C)c(=O)c(C)c32)c1 [Trametinib]; settings: max 1 µM
Outline: as §1

Paclitaxel = compound: CC(=O)O[C@H]1C(=O)[C@@]2(C)[C@H]([C@H](OC(=O)c3ccccc3)[C@]3(O)C[C@H](OC(=O)[C@H](O)[C@@H](NC(=O)c4ccccc4)c4ccccc4)C(C)=C1C3(C)C)[C@]1(OC(C)=O)CO[C@@H]1C[C@@H]2O [Paclitaxel]; settings: max 3 µM
Outline: as §1

Gemcitabine = compound: Nc1ccn([C@@H]2O[C@H](CO)[C@@H](O)C2(F)F)c(=O)n1 [Gemcitabine]; settings: max 0.3 µM
Outline: as §1

AZD6738 = compound: C[C@@H]1COCCN1C2=NC(=NC(=C2)C3(CC3)[S@](=N)(=O)C)C4=C5C=CNC5=NC=C4 [AZD6738]; settings: max 10 µM
Outline: as §1

SRA737 = compound: N#Cc1cnc(Nc2cc(NC[C@H]3CNCCO3)c(C(F)(F)F)cn2)cn1 [SRA737]; settings: max 10 µM
Outline: as §1

AZD1390 = compound: CC(C)n1c(=O)n(C)c2cnc3cc(F)c(-c4ccc(OCCCN5CCCCC5)nc4)cc3c21 [AZD1390]; settings: max 0.3 µM
Outline: as §1

[1] = compound: O=C(Nc1ccc2[nH]nc(-c3ccncc3)c2c1)[C@@H]1CCN(CC(=O)N2CCN(c3ccc(-c4ncccn4)cc3)CC2)C1; settings: max 5 µM
Outline: as §1

Doxorubicin = compound: COc1cccc2c1C(=O)c1c(O)c3c(c(O)c1C2=O)C[C@@](O)(C(=O)CO)C[C@@H]3O[C@H]1C[C@H](N)[C@H](O)[C@H](C)O1 [Doxorubicin]; settings: max 1 µM
Outline: as §1

SN-38 = compound: CCc1c2c(nc3ccc(O)cc13)-c1cc3c(c(=O)n1C2)COC(=O)[C@]3(O)CC [SN-38]; settings: max 0.3 µM
Outline: as §1

AZD0156 = compound: CN(C)CCCOc1ccc(-c2ccc3ncc4c(c3c2)n(C2CCOCC2)c(=O)n4C)cn1 [AZD0156]
Outline: as §1

AZD1775 = compound: C=CCn1c(=O)c2cnc(Nc3ccc(N4CCN(C)CC4)cc3)nc2n1-c1cccc(C(C)(C)O)n1 [AZD1775]
Outline: as §1

AZD5153 = compound: COc1nnc2ccc(N3CCC(c4ccc(OCCN5CCN(C)C(=O)[C@H]5C)cc4)CC3)nn12 [AZD5153]; settings: max 1 µM
Outline: as §1

MK-2206 = compound: NC1(c2ccc(-c3nc4ccn5c(=O)[nH]nc5c4cc3-c3ccccc3)cc2)CCC1 [MK-2206]; settings: max 10 µM
Outline: as §1

AZD8186 = compound: C[C@@H](Nc1cc(F)cc(F)c1)c1cc(C(=O)N(C)C)cc2c(=O)cc(N3CCOCC3)oc12 [AZD8186]; settings: max 10 µM
Outline: as §1

AZD5363 = compound: C1CN(CCC1(C(=O)N[C@@H](CCO)C2=CC=C(C=C2)Cl)N)C3=NC=NC4=C3C=CN4 [AZD5363]; settings: max 10 µM
Outline: as §1

Selumetinib = compound: Cn1cnc2c(F)c(Nc3ccc(Br)cc3Cl)c(C(=O)NOCCO)cc21 [Selumetinib]; settings: max 10 µM
Outline: as §1

Palbociclib = compound: CC(=O)c1c(C)c2cnc(Nc3ccc(N4CCNCC4)cn3)nc2n(C2CCCC2)c1=O [Palbociclib]; settings: max 10 µM
Outline: as §1

AZD2811 = compound: CCN(CCO)CCCOc1ccc2c(Nc3cc(CC(=O)Nc4cccc(F)c4)[nH]n3)ncnc2c1 [AZD2811]; settings: max 1 µM
Outline: as §1

Lapatinib = compound: CS(=O)(=O)CCNCc1ccc(-c2ccc3ncnc(Nc4ccc(OCc5cccc(F)c5)c(Cl)c4)c3c2)o1 [Lapatinib]; settings: max 10 µM
Outline: as §1

Olaparib = compound: O=C(c1cc(Cc2n[nH]c(=O)c3ccccc23)ccc1F)N1CCN(C(=O)C2CC2)CC1 [Olaparib]; settings: max 10 µM
Outline: as §1

Alisertib = compound: COc1cc(Nc2ncc3c(n2)-c2ccc(Cl)cc2C(c2c(F)cccc2OC)=NC3)ccc1C(=O)O [Alisertib]; settings: max 10 µM
Outline: as §1

Gefitinib = compound: COc1cc2ncnc(Nc3ccc(F)c(Cl)c3)c2cc1OCCCN1CCOCC1 [Gefitinib]; settings: max 10 µM
Outline: as §1

AZD7648 = compound: Cc1cc2ncnn2cc1Nc1ncc2c(n1)n(C1CCOCC1)c(=O)n2C [AZD7648]; settings: max 10 µM
Outline: as §1

5-Fluorouracil = compound: O=c1[nH]cc(F)c(=O)[nH]1 [5-Fluorouracil]; settings: max 20 µM
Outline: as §1

Prexasertib = compound: COc1cccc(OCCCN)c1-c1cc(Nc2cnc(C#N)cn2)n[nH]1 [Prexasertib]; settings: max 1 µM
Outline: as §1

Taselisib = compound: Cc1nc(-c2cn3c(n2)-c2ccc(-c4cnn(C(C)(C)C(N)=O)c4)cc2OCC3)n(C(C)C)n1 [Taselisib]; settings: max 10 µM
Outline: as §1

Carboplatin = compound: C1CC(C1)(C(=O)[O-])C(=O)[O-].N.N.[Pt+2] [Carboplatin]; settings: max 10 µM
Outline: as §1

Savolitinib = compound: C[C@@H](c1ccc2nccn2c1)n1nnc2ncc(-c3cnn(C)c3)nc21 [Savolitinib]; settings: max 1 µM
Outline: as §1

AZD4320 = compound: CN(CC[C@H](CSC1=CC=CC=C1)NC2=C(C=C(C=C2)S(=O)(=O)NC(=O)C3=CC=C(C=C3)N4CCC(CC4)[C@H](C5=CC=CC=C5C6=CC=C(C=C6)Cl)O)S(=O)(=O)C(F)(F)F)CCO [AZD4320]; settings: max 1 µM
Outline: as §1

Venetoclax = compound: CC1(C)CCC(CN2CCN(c3ccc(C(=O)NS(=O)(=O)c4ccc(NCC5CCOCC5)c([N+](=O)[O-])c4)c(Oc4cnc5[nH]ccc5c4)c3)CC2)=C(c2ccc(Cl)cc2)C1 [Venetoclax]; settings: max 1 µM
Outline: as §1

Crizotinib = compound: C[C@@H](Oc1cc(-c2cnn(C3CCNCC3)c2)cnc1N)c1c(Cl)ccc(F)c1Cl [Crizotinib]; settings: max 10 µM
Outline: as §1

Etoposide = compound: COc1cc([C@@H]2c3cc4c(cc3[C@@H](O[C@@H]3O[C@@H]5CO[C@@H](C)O[C@H]5[C@H](O)[C@H]3O)[C@H]3COC(=O)[C@H]23)OCO4)cc(OC)c1O [Etoposide]; settings: max 10 µM
Outline: as §1

AZD5991 = compound: Cc1c2c(nn1C)CSCc1cc(n(C)n1)CSc1cc(c3ccccc3c1)OCCCc1c(C(=O)O)n(C)c3c-2c(Cl)ccc13 [AZD5991]; settings: max 1 µM
Outline: as §1

Cell Line | IC50, cell viability 72 h (SG3199) [µM] | IC50, cell viability 72 h (Dasatinib) [µM] | IC50, cell viability 72 h (Trametinib) [µM] | IC50, cell viability 72 h (Paclitaxel) [µM] | IC50, cell viability 72 h (Gemcitabine) [µM] | IC50, cell viability 72 h (AZD6738) [µM] | IC50, cell viability 72 h (SRA737) [µM] | IC50, cell viability 72 h (AZD1390) [µM] | IC50, cell viability 72 h [1] [µM] | IC50, cell viability 72 h (Doxorubicin) [µM] | IC50, cell viability 72 h (SN-38) [µM] | IC50, cell viability 72 h (AZD0156; max 3 µM) [µM] | IC50, cell viability 72 h (AZD1775; max 3 µM) [µM] | IC50, cell viability 72 h (AZD5153) [µM] | IC50, cell viability 72 h (MK-2206) [µM] | IC50, cell viability 72 h (AZD8186) [µM] | IC50, cell viability 72 h (AZD5363) [µM] | IC50, cell viability 72 h (Selumetinib) [µM] | IC50, cell viability 72 h (Palbociclib) [µM] | IC50, cell viability 72 h (AZD2811) [µM] | IC50, cell viability 72 h (Lapatinib) [µM] | IC50, cell viability 72 h (Olaparib) [µM] | IC50, cell viability 72 h (Alisertib) [µM] | IC50, cell viability 72 h (Gefitinib) [µM] | IC50, cell viability 72 h (AZD7648) [µM] | IC50, cell viability 72 h (5-Fluorouracil) [µM] | IC50, cell viability 72 h (Prexasertib) [µM] | IC50, cell viability 72 h (Taselisib) [µM] | IC50, cell viability 72 h (Carboplatin) [µM] | IC50, cell viability 72 h (Savolitinib) [µM] | IC50, cell viability 72 h (AZD4320) [µM] | IC50, cell viability 72 h (Venetoclax) [µM] | IC50, cell viability 72 h (Crizotinib) [µM] | IC50, cell viability 72 h (Etoposide) [µM] | IC50, cell viability 72 h (AZD5991) [µM] | IC50, cell viability 72 h (AZD0156; max 1 µM) [µM] | IC50, cell viability 72 h (AZD1775; max 1 µM) [µM]
HDLM-2 (Hodgkin's Lymphoma) | > 0.001 | > 2 | > 1 | 0.0274 | > 0.3 | > 10 | > 10 | > 0.3 | > 5 | > 1 | 0.206 | > 3 | 0.387 | 0.936 | > 10 | > 10 | > 10 | > 10 | > 10 | > 1 | > 10 | > 10 | > 10 | > 10 | > 10 | > 20 | 0.504 | > 10 | > 10 | > 1 | 0.0826 | > 1 | > 10 | 6.08 | 0.119 | – | –
HMV-II (Melanoma) | > 0.001 | > 2 | 0.00878 | 0.31 | 0.139 | > 10 | > 10 | > 0.3 | 0.502 | 0.79 | 0.127 | > 3 | 1.16 | 0.463 | > 10 | > 10 | > 10 | 0.606 | > 10 | > 1 | > 10 | > 10 | > 10 | > 10 | > 10 | > 20 | > 1 | 5.06 | > 10 | > 1 | > 1 | > 1 | > 10 | > 10 | > 1 | – | –
HO-1-u-1 (Oral Cavity Carcinoma) | > 0.001 | 0.532 | > 1 | 0.82 | > 0.3 | 3.16 | 6.17 | > 0.3 | 4.14 | > 1 | 0.239 | > 3 | 0.816 | > 1 | > 10 | > 10 | 1.31 | > 10 | > 10 | > 1 | 7.6 | > 10 | 6.33 | > 10 | > 10 | > 20 | 0.0288 | 0.618 | > 10 | > 1 | > 1 | > 1 | > 10 | > 10 | > 1 | – | –
Hs-633T (Other Solid Carcinomas) | > 0.001 | 0.334 | 0.656 | 0.0304 | 0.0145 | 3.3 | > 10 | > 0.3 | 3.36 | 0.38 | 0.0382 | > 3 | 0.472 | 0.57 | > 10 | > 10 | > 10 | > 10 | > 10 | > 1 | > 10 | > 10 | 9.06 | > 10 | > 10 | > 20 | 0.0814 | 7.46 | > 10 | > 1 | > 1 | > 1 | 7 | 5.07 | > 1 | – | –
MDA-MB-468 (Breast Carcinoma) | > 0.001 | > 2 | 0.415 | 0.111 | 0.263 | 6.88 | > 10 | > 0.3 | > 5 | > 1 | 0.04 | > 3 | 1.79 | > 1 | 9.17 | 9.07 | > 10 | > 10 | > 10 | > 1 | 9.24 | > 10 | 1.52 | – | > 10 | > 20 | 0.618 | > 10 | > 10 | – | 0.67 | > 1 | > 10 | > 10 | > 1 | – | –
RH-18 (Rhabdomyosarcoma) | > 0.001 | – | – | – | – | > 10 | – | – | – | 0.909 | > 0.3 | – | – | – | – | – | – | – | – | > 1 | – | > 10 | – | – | > 10 | – | > 1 | – | – | – | – | – | – | – | – | > 1 | > 1
